Where a name gives a salt, the structure may show the parent alone.
melting point	SMILES
161.9 to 163.5 °C	CN1CCN(c2cc(Cl)ccc2CC2OCCN(c3ccc(C(C)(C)C)cc3)C2=O)CC1 (racemic) [Example 27 (±), (±)-4-(4-tert-Butyl-phenyl)-2-[4-chloro-2-(4-methylpiperazin-1-yl)-benzyl]-morpholin-3-one]
139 to 142 °C	CN1CCN(c2cccc(Cl)c2C=C2OCCN(c3ccc(C(C)(C)C)cc3)C2=O)CC1.Cl
176.9 to 179.3 °C	CN1CCN(c2cccc(F)c2CC2OCCN(c3ccc(C(C)(C)C)cc3)C2=O)CC1.Cl (stereo not drawn) [Example 28 (+)]
68 to 70 °C	CN1CCN(c2ccccc2C=C2OCCN(Cc3ccc(C(C)(C)C)cc3)C2=O)CC1 [Example 20, 4-(4-tert-Butyl-benzyl)-2-[2-(4-methylpiperazin-1-yl)-benzylidene]-morpholin-3-one]
209 to 210.8 °C	CN1CCN(c2cc(Cl)ccc2C=C2OCCN(c3ccc(C(C)(C)C)cc3)C2=O)CC1 [Example 10, 4-(4-tert-Butyl-phenyl)-2-[4-chloro-2-(4-methylpiperazin-1-yl)-benzylidene]-morpholin-3-one]
136 to 138 °C	CN1CCN(c2ccc(C(F)(F)F)cc2CC2OCCN(c3ccc(C(C)(C)C)cc3)C2=O)CC1.Cl (stereo not drawn) [Example 32 (+)]
156.2 to 158.1 °C	CN1CCN(c2cc(F)ccc2CC2OCCN(c3ccc(C(C)(C)C)cc3)C2=O)CC1.Cl (stereo not drawn) [Example 29 (−)]
165.8 to 171.2 °C	CN1CCN(c2ccccc2CC2OCCN(c3ccc(C(C)(C)C)cc3)C2=O)CC1.Cl (single isomer, unassigned) [Example 24 (+)]
159 to 161.8 °C	CN1CCN(c2cc(Cl)ccc2CC2OCCN(c3ccc(C(C)(C)C)cc3)C2=O)CC1.Cl (stereo not drawn) [Example 27 (−)]
187.5 to 192.6 °C	CN1CCN(c2cccc(F)c2C=C2OCCN(c3ccc(C(C)(C)C)cc3)C2=O)CC1.Cl
186.3 to 191.9 °C	CN1CCN(c2cc(C(F)(F)F)ccc2C=C2OCCN(c3ccc(C(C)(C)C)cc3)C2=O)CC1 [Example 14, 4-(4-tert-Butyl-phenyl)-2-[2-(4-methylpiperazin-1-yl)-4-trifluoromethyl-benzylidene]-morpholin-3-one]
128 to 130 °C	CN1CCN(c2ccc(C(F)(F)F)cc2CC2OCCN(c3ccc(C(C)(C)C)cc3)C2=O)CC1.Cl (stereo not drawn) [Example 32 (−)]
155.9 to 159.9 °C	CN1CCN(c2cc(F)ccc2CC2OCCN(c3ccc(C(C)(C)C)cc3)C2=O)CC1.Cl (racemic) [Example 29 (±)]
92 to 93 °C	Cc1ccc(N2CCN(C)CC2)c(CC2OCCN(c3ccc(C(C)(C)C)cc3)C2=O)c1 (single isomer, unassigned; (+)) [Example 31 (+), (+)-4-(4-tert-Butyl-phenyl)-2-[5-methyl-2-(4-methylpiperazin-1-yl)-benzyl]-morpholin-3-one]
107 to 108.7 °C	CN1CCN(c2c(F)cccc2CC2OCCN(c3ccc(C(C)(C)C)cc3)C2=O)CC1.Cl (racemic) [Example 30 (±)]
104.7 °C (dec.)	CN1CCN(c2c(F)cccc2CC2OCCN(c3ccc(C(C)(C)C)cc3)C2=O)CC1.Cl (stereo not drawn) [Example 30 (+)]
167 to 168 °C	CC1CN(c2ccccc2C=C2OCCN(c3ccc(C(C)(C)C)cc3)C2=O)CC(C)N1C (stereo not drawn) [Example 6, 2-[2-(3,4,5-Trimethylpiperazin-1-yl)-benzylidene]-4-(4-tert-butylphenyl)-morpholin-3-one]
215 °C (dec.)	CN1CCN(c2cccc(Cl)c2CC2OCCN(c3ccc(C(C)(C)C)cc3)C2=O)CC1.Cl (racemic)

melting point	SMILES
205 °C (dec.)	CN1CCN(c2cccc(C(F)(F)F)c2C=C2OCCN(c3ccc(C(C)(C)C)cc3)C2=O)CC1.Cl
128.5 to 129.9 °C	CN1CCN(c2c(F)cccc2CC2OCCN(c3ccc(C(C)(C)C)cc3)C2=O)CC1.Cl (stereo not drawn) [Example 30 (−)]
185.7 to 188.1 °C	CC(C)c1ccc(N2CCOC(Cc3ccccc3N3CCN(C)CC3)C2=O)cc1.Cl (racemic)
145.1 to 146.2 °C	CN1CCN(c2ccc(C(F)(F)F)cc2CC2OCCN(c3ccc(C(C)(C)C)cc3)C2=O)CC1 (racemic) [Example 32 (±), (±)-4-(4-tert-Butyl-phenyl)-2-[2-(4-methylpiperazin-1-yl)-5-trifluoromethyl-benzyl]-morpholin-3-one]
209.2 to 211 °C	Cc1ccc(N2CCN(C)CC2)c(C=C2OCCN(c3ccc(C(C)(C)C)cc3)C2=O)c1 [Example 15, 4-(4-tert-Butyl-phenyl)-2-[5-methyl-2-(4-methylpiperazin-1-yl)-benzylidene]-morpholin-3-one]
157.4 to 159.6 °C	CN1CCN(c2cc(F)ccc2CC2OCCN(c3ccc(C(C)(C)C)cc3)C2=O)CC1.Cl (stereo not drawn) [Example 29 (+)]
215 to 216 °C	CN1CCN(c2ccccc2CC2OCCN(Cc3ccc(C(C)(C)C)cc3)C2=O)CC1.Cl (racemic)
187.1 to 191.2 °C	CN1CCN(c2ccccc2CC2OCCN(c3ccc(C(C)(C)C)cc3)C2=O)CC1.Cl (single isomer, unassigned) [Example 24 (−)]
184.3 to 187.1 °C	CN1CCN(c2c(F)cccc2C=C2OCCN(c3ccc(C(C)(C)C)cc3)C2=O)CC1 [Example 12, 4-(4-tert-Butyl-phenyl)-2-[3-fluoro-2-(4-methylpiperazin-1-yl)-benzylidene]-morpholin-3-one]
219.4 to 222.2 °C	CN1CCN(c2ccccc2CC2OCCN(c3ccc(-c4ccccc4)cc3)C2=O)CC1.Cl (racemic)
169 to 171 °C	CN1CCN(c2ccccc2C=C2OCCN(c3ccc(C(C)(C)C)cc3)C2=O)CC1 [Example 5, 2-[2-(4-Methylpiperazin-1-yl)-benzylidene]-4-(4-tert-butylphenyl)-morpholin-3-one]
135 °C (dec.)	CC1CN(c2ccccc2CC2OCCN(c3ccc(C(C)(C)C)cc3)C2=O)CC(C)N1C.Cl (racemic)
190.5 to 192.1 °C	CN1CCN(c2cccc(F)c2CC2OCCN(c3ccc(C(C)(C)C)cc3)C2=O)CC1.Cl (racemic) [Example 28 (±)]
86 to 88 °C	Cc1ccc(N2CCN(C)CC2)c(CC2OCCN(c3ccc(C(C)(C)C)cc3)C2=O)c1 (single isomer, unassigned; (-)) [Example 31 (−), (−)-4-(4-tert-Butyl-phenyl)-2-[5-methyl-2-(4-methylpiperazin-1-yl)-benzyl]-morpholin-3-one]
159.5 to 161.7 °C	CN1CCN(c2cc(Cl)ccc2CC2OCCN(c3ccc(C(C)(C)C)cc3)C2=O)CC1.Cl (stereo not drawn) [Example 27 (+)]
178 to 181.4 °C	CN1CCN(c2cccc(F)c2CC2OCCN(c3ccc(C(C)(C)C)cc3)C2=O)CC1.Cl (stereo not drawn) [Example 28 (−)]
179 to 180 °C (dec.)	CN1CCN(c2ccccc2CC2OCCN(c3ccc(C(C)(C)C)cc3)C2=O)CC1 (racemic) (as salt: tartrate) [Example 23, (±)-4-(4-tert-Butyl-phenyl)-2-[2-(4-methylpiperazin-1-yl)-benzyl]-morpholin-3-one]
155 to 156 °C	CC(C)c1ccc(N2CCOC(=Cc3ccccc3N3CCN(C)CC3)C2=O)cc1 [Example 3, 2-[2-(4-Methylpiperazin-1-yl)-benzylidene]-4-(4-isopropylphenyl)-morpholin-3-one]

— patent US20050227980A1, “Aralkyl and aralkylidene heterocyclic lactam and imides” (Pfizer Inc., priority 2003, published 2005)
